Patent US4564476A, “Aryl fatty acid leukotriene synthesis inhibitors” (McNeilab, Inc., priority 1984, dated 1986)

Legend:
[1] = test system: guinea pig lung parenchymal tissue; experiment: Immunologically Mediated Contraction of the Parenchymal Strip (IMCPS); set-up: species or system guinea pig (male Hartley strain); details: Cavia porcellus, egg albumin induced contraction of sensitized guinea pig lung parenchymal strip, with chlorpheniramine 10.0 μM and indomethacin 100.0 μM, relative to control tissue, read-out: IMCPS % inhib. 100 μM
Method: (a) Immunologically Mediated Contraction of the Parenchymal Strip (IMCPS)
It is a modification of the procedure published by K. Forsberg and L. Sorenby in Agents and Actions, Vol. 9 pp. 364-368 (1978). In this test, male Hartley strain guinea pigs weighing 400 to 600 g were sensitized by subcutaneous administration of chicken egg albumin (Sigma A-5503, 1.0 mg, 0.5% solution) and bordetella pertussis, 11×10^9 cells (Massachusetts Public Health Biological Labs) 4 to 8 weeks prior to the experiment. The animals were sacrificed, the heart and lungs were removed en bloc and placed in Krebs solution at room temperature. Lung strips (2.5 cm in length) were cut from the peripheral edge of each lobe. Two strips were removed from each animal and were trimmed to be of equal length. Each strip was suspended in an isolated organ bath (10.0 ml) containing oxygenated Krebs buffer solution at 37.5° C. then attached to a force displacement transducer (Grass FT03) and placed under an initial tension of 1.0 g. The tissues were allowed to equilibrate for 45-60 minutes, during which the bathing solution was changed several times. At the end of the equilibration period, chlorpheniramine (10.0 μM) and indomethacin (100.0 μM) were added to eliminate the contribution of histamine and prostaglandins to the contractile response. The two tissues from each animal were matched so that one tissue served as a control, and the test drug dissolved in DMSO was added to the bath containing the other tissue at a final concentration of 100 μM. After 30 minutes, egg albumin was added to each bath and the contractile response was measured as milligrams of tension developed as recorded on a Grass Model 7D polygraph.

[2] = test system: lipoxygenase metabolites released or generated from human granulocyte cells; experiment: Human Granulocyte Assay for Lipoxygenase Products (HGALP); type: cell-based; details: [3H]-arachidonic acid prelabeled human granulocytes, 10 μM ionophore A23187 challenge, 14 μM indomethacin
Method: (b) Human Granulocyte Assay for Lipoxygenase Products (HGALP)
This test is a measurement of the inhibition of the synthesis or release of [3H]-labeled lipoxygenase metabolites released or generated from human granulocyte cells that are prelabeled with [3H]-arachidonic acid. These metabolites include the leukotrienes (e.g., LTB4) which are potent mediators of inflammation and allergy. In this test, a granulocyte enriched fraction is prepared from freshly drawn human blood (50 ml/donor) by standard techniques involving unit gravity separation on ficoll hypaque. Cells are prelabeled with [3H]-arachidonic acid (20 μCi in 2 ml cell suspension) during a 30 min. incubation at 37° C. After washing out unincorporated label, the radiolabeled cells are brought up in incubation buffer (Minimum Essential Medium containing 14 μM indomethacin) to a 10^7 cell/ml concentration. Cell suspensions (1 ml/sample) are preincubated for 5 min. in the presence or absence of test drugs delivered in 5 μl dimethylsulfoxide (DMSO). Cell suspensions are challenged with 10 μM ionophore A23187 to activate the calcium-dependent metabolism of [3H]-arachidonic acid. After a 5 min. incubation at 37° C., incubations are terminated by the addition of 1 ml ice cold phosphate buffered saline, and cells are pelleted by centrifugation. Supernatants are passed through C18 Sep Pak® cartridges which are then washed twice with 1 ml water. Lipoxygenase metabolites are eluted with two 1 ml volumes of methanol. Eluates are collected in scintillation vials and counted in Aqueous Counting Scintillant (ACS). Radioactivity eluted with methanol is a measure of lipoxygenase metabolites. Values are normalized to vehicle (5 μl DMSO) treated controls and expressed as percent inhibition. Triplicate determinations at each drug concentration are analyzed as log-dose response curves by linear regression analysis from which IC50 values are derived.

[3] = test system: lipoxygenase metabolites released or generated from human granulocyte cells; experiment: as above; type: cell-based; details: [3H]-arachidonic acid prelabeled human granulocytes, 10 μM ionophore A23187

| IC50 [2] [µM] | SMILES | inhibition at 100 µM [1] [%] | inhibition at 100 µM [3] [%] |
| --- | --- | --- | --- |
|  | CC(C)(/C=C\CCCC(=O)O)COCc1ccccc1 [Example 1c, 7,7-Dimethyl-8-(phenylmethoxy)-5(Z)-octenoic Acid] | 79 |  |
| 42 | CN(C)C(=O)CCC/C=C\C(C)(C)COCc1ccccc1 [Example 2, N,N,7,7-Tetramethyl-8-(phenylmethoxy)-5(Z)-octenamide] | 19 |  |
| 17 | CC(C)(/C=C\CCCCO)COCc1ccccc1 [Example 4, 7,7-Dimethyl-8-(phenylmethoxy)-5(Z)-octenol] | 38 |  |
|  | COc1ccc(COCC(C)(C)/C=C\CCCC(=O)O)cc1 [Example 5c, 7,7-Dimethyl-8-(4-methoxyphenylmethoxy)-5(Z)-octenoic Acid] | 31 | 18 |
| 39 | COC(=O)CCC/C=C\C(C)(C)COCc1ccc(O)cc1 [Example 6, Methyl 7,7-dimethyl-8-(4-hydroxyphenylmethoxy)-5(Z)-octenoate] | 49 |  |
| 255 | CC(C)(/C=C\CCCC(=O)O)COCc1ccc(O)cc1 [Example 7, 7,7-Dimethyl-8-(4-hydroxyphenylmethoxy)-5(Z) Octenoic Acid] | 4 |  |
| 6.6 | COC(=O)CCC/C=C\C(C)(C)C=Cc1ccc(Cl)cc1 [Example 8c, Methyl 9-(4-chlorophenyl)-7,7-dimethyl-5(Z),8-nonadienoate] | 15 |  |
| 19 | CC(C)(C=Cc1ccc(Cl)cc1)/C=C\CCCC(=O)O [Example 9, 9-(4-Chlorophenyl)-7,7-dimethyl-5(Z),8-nonadienoic acid] | 76 |  |
|  | CC(C)(/C=C\CCCC(=O)O)COCC=Cc1ccccc1 [Example 10c, 7,7-Dimethyl-8-(3-phenyl-2-propenoxy)-5(Z) octenoic Acid] | 44 | 5 |
| 96 | CCCC=Cc1ccccc1COCC(C)(C)/C=C\CCCC(=O)O [Example 11g, 7,7-Dimethyl-8-[2(1-pentenyl)phenylmethoxy]-5(Z)octenoic acid] | 40 |  |
